Reference: publication PMC6792352, “Limited Chemical Structural Diversity Found to Modulate Thyroid Hormone Receptor in the Tox21 Chemical Library” (Environmental Health Perspectives, 2019)
Structures can show the parent of a compound that is named as a salt.

Assay: in vitro
Conditions: rat, gh3-tre-luc cells, AC50 (uM) modified / 1000

SMILES | CC50 at 24 h
CC(C)COC(=O)CC(C(=O)OCC(C)C)S(=O)(=O)O (stereo not drawn) [Sodium 1,4-diisobutyl sulfosuccinate] | > 90 µM
CC/C=C\CCCCCO [(6Z)-Non-6-en-1-ol] | > 90 µM
CC[N+](CC)(CC)CC [Tetraethylammonium chloride] | > 100 µM
CS(=O)(=O)Cl [Methanesulfonyl chloride] | > 90 µM
CC(=O)Nc1ccc(OCC(O)CNC(C)C)cc1 (stereo not drawn) [Practolol] | > 50 µM
O=C1CN=C(c2ccccc2)c2cc(Cl)ccc2N1CC1CC1 [Prazepam] | > 90 µM
CCCCCc1ccc(N)cc1 [4-Pentylaniline] | > 90 µM
CC(C)CCCC(C)N (stereo not drawn) [2-Amino-6-methylheptane] | > 50 µM
Cc1ccc(N)cc1O [5-Amino-2-methylphenol] | > 90 µM
CC1=NN(c2ccc(C(=O)O)cc2)C(=O)C1 [4-(3-Methyl-5-oxo-4,5-dihydro-1H-pyrazol-1-yl)benzoic acid] | > 90 µM
CCCCCCCCCCCCSC [1-(Methylsulfanyl)dodecane] | > 90 µM
CC(C)(C)C(=O)Oc1ccc(S(=O)(=O)Nc2ccccc2C(=O)NCC(=O)O)cc1 [Sivelestat sodium tetrahydrate] | > 50 µM
OP(O)c1ccccc1 [Phenylphosphinic acid] | > 90 µM
Nc1ccc(S(=O)(=O)O)cc1 [Sodium sulfanilate] | > 90 µM
Nc1ccc(N)c2c1C(=O)c1ccccc1C2=O [1,4-Diaminoanthraquinone] | 55.3 µM
FC(F)(F)c1ccccc1Cl [2-Chlorobenzotrifluoride] | > 90 µM
CC(C(=O)O)c1ccc(N2Cc3ccccc3C2=O)cc1 (stereo not drawn) [Indoprofen] | > 50 µM
Cc1cccc(C(C)c2cnc[nH]2)c1C (stereo not drawn) [Medetomidine hydrochloride] | > 50 µM
C=CC(=O)O [Acrylic acid] | > 50 µM
OC[C@H](Cc1cccc(O)c1)[C@H](CO)Cc1cccc(O)c1 [(-)-Enterodiol] | > 90 µM
N=C1N=C(N)c2ccccc21 [1H-Isoindole-1,3(2H)-diimine] | 35.8 µM
O=C(O)c1cc(/N=N/c2ccc(O)c(C(=O)O)c2)ccc1O [Olsalazine sodium] | > 50 µM
CN1CCC(=C2c3ccccc3Sc3ccccc32)CC1 [Pimethixene maleate] | 4.52 µM
CC(C)(C)NCC(O)COc1cccc2c1C[C@H](O)[C@H](O)C2 (mixture of isomers) [Nadolol] | > 20 µM
COc1ncnc(NS(=O)(=O)c2ccc(N)cc2)c1OC [Sulfadoxine] | > 50 µM

SMILES | CC50 at 24 h
COc1cc(C[C@H](C)N)c(OC)cc1C [(S)-(+)-2,5-Dimethoxy-4-methylamphetamine hydrochloride] | > 100 µM
Nc1c2c(nc3ccccc13)CCCC2O (stereo not drawn) [Hydroxytacrine maleate] | > 50 µM
CCC(=O)O[C@H]1[C@H](O[C@@H]2[C@@H](C)[C@H](O[C@H]3C[C@@](C)(OC)[C@@H](O)[C@H](C)O3)[C@@H](C)C(=O)O[C@H](CC)[C@@](C)(O)[C@H](O)[C@@H](C)C(=O)[C@H](C)C[C@@]2(C)O)O[C@H](C)C[C@@H]1N(C)C [Erythromycin propionate] | 13.1 µM
Cc1ccccc1C(=O)Nc1ccc(C(=O)N2CCCC(O)c3cc(Cl)ccc32)c(C)c1 (stereo not drawn) [Tolvaptan] | > 50 µM
COc1ccc(C)cc1N [2-Methoxy-5-methylaniline] | > 90 µM
COC(=O)c1ccccc1C(=O)c1ccc(OCCN2CCCCC2)cc1 [Pitofenone hydrochloride] | 42.7 µM
CSc1ccc(Cl)cc1 [4-Chlorophenyl methyl sulfide] | > 90 µM
NC(=O)N1C(=O)/C(=C(\O)c2cccs2)c2cc(Cl)ccc21 [Tenidap] | 41.8 µM
COc1ccc(S(=O)(=O)Nc2nnc(CC(C)C)s2)cc1 [Glysobuzole] | > 50 µM
CC(C)CC(=O)C1C(=O)c2ccccc2C1=O [2-Isovaleryl-1,3-indanedione] | > 90 µM
CCC(C)(CCCC(C)C)OC(C)=O (stereo not drawn) [3,7-Dimethyloctan-3-yl acetate] | > 90 µM
CCc1cnc(C(=O)O)c(C(=O)O)c1 [5-Ethyl-2,3-pyridinedicarboxylic acid] | > 100 µM
C=CCCC#N [4-Pentenenitrile] | > 90 µM
Cc1ccc(O)c2ncccc12 [Tiliquinol] | 4.67 µM
C1=Cc2ccccc2C1 [Indene] | > 90 µM
CC(=O)Nc1ccccc1 [Acetanilide] | > 90 µM
CC(C)Cc1ccc([C@@H](C)C(=O)NS(C)(=O)=O)cc1 [Reparixin] | > 50 µM
CCCOCCOCCO [2-(2-Propoxyethoxy)ethanol] | > 90 µM
Cc1cc(C(=O)NCCc2ccc(S(=O)(=O)NC(=O)NN3CCCCCC3)cc2)no1 [Glisoxepide] | > 50 µM
CCCCCCCCCCCCCCCC(=O)OC[C@@H](NC(=O)C(Cl)Cl)[C@H](O)c1ccc([N+](=O)[O-])cc1 [Chloramphenicol palmitate] | > 50 µM
OC(CCCN1CCCCC1)(c1ccccc1)c1ccccc1 [Diphenidol] | > 50 µM
CC(=O)Nc1c(I)c(NC(C)=O)c(I)c(C(=O)O)c1I [Diatrizoic acid dihydrate] | > 50 µM
CC#CCC(C)[C@H](O)/C=C/[C@@H]1[C@H]2C/C(=C/CCCC(=O)O)C[C@H]2C[C@H]1O (stereo partly drawn) [Iloprost] | > 50 µM
CCCCNc1c(C(=O)OCC)c(C)nc2c1cnn2CC [Tracazolate hydrochloride] | > 50 µM
CCCCCCOC(=O)c1ccccc1C(=O)OCCCCCC [Dihexyl phthalate] | > 90 µM

SMILES | CC50 at 24 h
Oc1ccccc1F [2-Fluorophenol] | > 90 µM
Cc1ccc(S(=O)(=O)NC(=O)NC2CCCCC2)cc1 [Glycyclamide] | > 50 µM
ClC(Cl)(Cl)c1ccccc1 [Benzotrichloride] | > 90 µM
Cc1ccccc1S [2-Methylbenzenethiol] | > 70 µM
COc1cc(OC)cc(OC)c1 [1,3,5-Trimethoxybenzene] | > 50 µM
CC(=O)NC[C@H]1CN(c2ccc(N3CCOCC3)c(F)c2)C(=O)O1 [Linezolid] | > 50 µM
CCOc1ccc(NS(=O)(=O)c2ccc(N)cc2)nn1 [Sulfaethoxypyridazine] | > 50 µM
COc1ccc2c(c1)c(CC(=O)O)c(C)n2C(=O)c1ccc(Cl)cc1 [Indomethacin] | > 90 µM
O=C(COCCOCCOCC(=O)Nc1c(I)cc(I)c(C(=O)O)c1I)Nc1c(I)cc(I)c(C(=O)O)c1I [Biliscopin] | > 50 µM
CCC(=C(CC)c1ccc(O)cc1)c1ccc(O)cc1 [(Z,E)-Diethylstilbestrol] | 12.2 µM
CCCCCCCCCCCC[N+](C)(C)CCCS(=O)(=O)O | 55.3 µM
CCCC[N+]1(C)CCCCC1 [1-Butyl-1-methylpiperidinium tetrafluoroborate] | > 90 µM
C[N+](C)(CCCCCC[N+](C)(C)C1c2ccccc2-c2ccccc21)C1c2ccccc2-c2ccccc21 [Hexafluorenium dibromide] | > 50 µM
CCCCCCCCC [Nonane] | > 90 µM
O=C1C(Cl)C(CCl)CN1c1cccc(C(F)(F)F)c1 (stereo not drawn) [Flurochloridone] | > 90 µM
CC(C)COC(=O)CCCCC(=O)OCC(C)C [Diisobutyl adipate] | > 90 µM
C[N+](C)(C)CCOC(=O)C(O)(c1ccccc1)c1ccccc1 [Metocinium iodide] | > 50 µM
Oc1cc(O)c(Cl)cn1 [Gimeracil] | > 50 µM
CCCCCCCCCCC=CC#N [Tridec-2-enenitrile] | > 90 µM
Nc1ccc(C(=O)O)cc1 [4-Aminobenzoic acid] | > 90 µM
O=C(O)[C@@H]1[C@H]2C[C@H]3c4[nH]c5ccccc5c4CCN3C[C@@H]2CC[C@@H]1O [Yohimbic acid monohydrate] | > 20 µM
CCCCCCCCCCCCCCCC(=O)OCCC1CCN(CCCN2c3ccccc3Sc3ccc(S(=O)(=O)N(C)C)cc32)CC1 [Pipothiazine palmitate] | > 50 µM
C[C@]12CCC(=O)C=C1CC[C@@H]1[C@@H]2[C@@H](O)C[C@@]2(C)[C@H]1CC[C@]2(O)C(=O)CO [Hydrocortisone] | > 90 µM
c1ccc(CCCc2ccccn2)cc1 [2-(3-Phenylpropyl)pyridine] | > 90 µM
O=C(CCCCCCCCC#CI)Oc1ccccc1 [Phenyl 11-iodo-10-undecynoate] | > 50 µM

Same assay, conditions: rat, gh3-tre-luc cells, AC50 (uM) modified / 1000, Tox21_110001=Tox21_110110; viability, 1 nM T3 present, 24 h

SMILES | CC50 at 24 h
Clc1cccc(N2CCNCC2)c1 [1-(3-Chlorophenyl)piperazine] | > 50 µM

Same assay, conditions: rat, gh3-tre-luc cells, AC50 (uM) modified / 1000, Tox21_110001=Tox21_113357; viability, 1 nM T3 present, 24 h

SMILES | CC50 at 24 h
CCOP(=S)(OCC)O/N=C(\C#N)c1ccccc1 [Phoxim] | > 50 µM

Same assay, conditions: rat, gh3-tre-luc cells, AC50 (uM) modified / 1000, Tox21_110001=Tox21_200670; viability, 1 nM T3 present, 24 h

SMILES | CC50 at 24 h
O=[N+]([O-])c1ccc(Cl)c(Cl)c1Cl [2,3,4-Trichloronitrobenzene] | > 90 µM

Same assay, conditions: rat, gh3-tre-luc cells, AC50 (uM) modified / 1000, Tox21_110001=Tox21_201566; viability, 1 nM T3 present, 24 h

SMILES | CC50 at 24 h
COc1ccc(C=O)cc1OC [Veratraldehyde] | > 90 µM

Same assay, conditions: rat, gh3-tre-luc cells, AC50 (uM) modified / 1000, Tox21_110001=Tox21_202291; viability, 1 nM T3 present, 24 h

SMILES | CC50 at 24 h
O=[N+]([O-])c1ccc(Cl)cc1 [1-Chloro-4-nitrobenzene] | > 90 µM

Same assay, conditions: rat, gh3-tre-luc cells, AC50 (uM) modified / 1000, Tox21_110001=Tox21_301004; viability, 1 nM T3 present, 24 h

SMILES | CC50 at 24 h
CSc1nc(N=[N+]=[N-])nc(NC(C)C)n1 [Aziprotryne] | > 90 µM

Same assay, conditions: rat, gh3-tre-luc cells, AC50 (uM) modified / 1000, Tox21_110001=Tox21_301580; viability, 1 nM T3 present, 24 h

SMILES | CC50 at 24 h
CCOP(=S)(OCC)O/N=C(\C#N)c1ccccc1 [Phoxim] | > 90 µM

Same assay, conditions: rat, gh3-tre-luc cells, AC50 (uM) modified / 1000, Tox21_110001=Tox21_301642; viability, 1 nM T3 present, 24 h

SMILES | CC50 at 24 h
CC(C=O)Cc1ccc2c(c1)OCO2 (stereo not drawn) | > 90 µM

Same assay, conditions: rat, gh3-tre-luc cells, AC50 (uM) modified / 1000, Tox21_110001=Tox21_400013; viability, 1 nM T3 present, 24 h

SMILES | CC50 at 24 h
O=[N+]([O-])c1c(Cl)c(Cl)cc(Cl)c1Cl [2,3,5,6-Tetrachloronitrobenzene] | > 90 µM
